Test results: ChEMBL document CHEMBL5030556, “Selection and Identification of Novel Antibacterial Agents against Planktonic Growth and Biofilm Formation of Enterococcus faecalis” (J Med Chem, 2021)
Calls of active or inactive are those of the source. No cut-off for these calls is given here.

Assays:
[1] = tested on: Enterococcus faecalis; assay: Antimicrobial activity against Enterococcus faecalis OG1RF assessed as reduction in visible bacterial growth incubated for 16 to 20 hrs by microdilution broth assay; assay type: functional; settings: time 16-20 hrs
[2] = tested on: Enterococcus faecalis; assay: Bactericidal activity against Enterococcus faecalis OG1RF assessed as reduction in bacterial colonies incubated for 16 to 20 hrs by microdilution broth analysis; assay type: functional; settings: time 16-20 hrs, read-out: MBC99.9
[3] = Inhibition of Enterococcus faecalis OG1RF YycG autophosphorylation by Kinase-Glo luminescent kinase assay
[4] = Cytotoxicity against african green monkey Vero cells assessed as inhibition of cell growth by MTT assay; assay type: cell-based; settings: chlorocebus sabaeus
[5] = Hemolytic activity against human erythrocytes at 50 uM incubated for 1 hr at 570 nm by spectrophotometry; assay type: ADME, tissue-based, Erythrocyte; settings: read-out: Activity
[6] = Hemolytic activity against human erythrocytes at 200 uM incubated for 1 hr at 570 nm by spectrophotometry; assay type: ADME, tissue-based, Erythrocyte; settings: read-out: Activity
[7] = tested on: Enterococcus faecalis; assay: Antibacterial activity against Enterococcus faecalis ATCC 29212 assessed as reduction in visible bacterial growth incubated for 16 to 20 hrs by microdilution broth assay; assay type: functional; settings: time 16-20 hrs
[8] = tested on: Enterococcus faecalis; assay: Antibacterial activity against Enterococcus faecalis OG1RF assessed as reduction in visible bacterial growth incubated for 16 to 20 hrs by microdilution broth assay; assay type: functional; settings: time 16-20 hrs
[9] = tested on: Enterococcus faecalis; assay: Antibacterial activity against Enterococcus faecalis FB-1 assessed as reduction in visible bacterial growth incubated for 16 to 20 hrs by microdilution broth assay; assay type: functional; settings: time 16-20 hrs
[10] = tested on: Staphylococcus epidermidis; assay: Antibacterial activity against Staphylococcus epidermidis ATCC 35984 assessed as reduction in visible bacterial growth incubated for 16 to 20 hrs by microdilution broth assay; assay type: functional; settings: time 16-20 hrs
[11] = tested on: Staphylococcus epidermidis; assay: Antibacterial activity against Staphylococcus epidermidis ATCC 12228 assessed as reduction in visible bacterial growth incubated for 16 to 20 hrs by microdilution broth assay; assay type: functional; settings: time 16-20 hrs
[12] = tested on: Staphylococcus aureus; assay: Antibacterial activity against Staphylococcus aureus ATCC 29213 assessed as reduction in visible bacterial growth incubated for 16 to 20 hrs by microdilution broth assay; assay type: functional; settings: time 16-20 hrs
[13] = tested on: Staphylococcus aureus; assay: Antibacterial activity against Staphylococcus aureus ATCC 35556 assessed as reduction in visible bacterial growth incubated for 16 to 20 hrs by microdilution broth assay; assay type: functional; settings: time 16-20 hrs
[14] = tested on: Enterococcus faecium; assay: Antibacterial activity against Enterococcus faecium EF16M64 assessed as reduction in visible bacterial growth incubated for 16 to 20 hrs by microdilution broth assay; assay type: functional; settings: time 16-20 hrs
[15] = tested on: Streptococcus agalactiae; assay: Antibacterial activity against Streptococcus agalactiae NSGC64 assessed as reduction in visible bacterial growth incubated for 16 to 20 hrs by microdilution broth assay; assay type: functional; settings: time 16-20 hrs
[16] = tested on: Escherichia coli; assay: Antibacterial activity against Escherichia coli […] assessed as reduction in visible bacterial growth incubated for 16 to 20 hrs by microdilution broth assay; assay type: functional; settings: time 16-20 hrs
[17] = tested on: Enterococcus faecalis; assay: Inhibition of biofilm formation of Enterococcus faecalis FB-1 assessed as inhibitory rate of formation at 100 uM for 24 hrs measured at 570 nm by crystal violet staining based spectrophotometry; assay type: functional
[18] = tested on: Enterococcus faecalis; assay: Binding affinity to Enterococcus faecalis FB-1 YycG assessed as slow association and slow dissociation measured by Octet RED96 response assay
[19] = tested on: Enterococcus faecalis; assay: Bacteriostatic activity against planktonic cells of Enterococcus faecalis OG1RF measured by microdilution broth assay; assay type: functional, organism-based
[20] = tested on: Enterococcus faecalis; assay: Antibiofilm activity against Enterococcus faecalis FB-1 assessed as inhibition of biofilm maturation measured after 24 hr; assay type: functional, organism-based
[21] = tested on: Enterococcus faecalis; assay: Antibiofilm activity against Enterococcus faecalis FB-1 assessed as inhibition of biofilm maturation at 1.56 uM measured after 24 hr; assay type: functional, organism-based
[22] = tested on: Staphylococcus epidermidis; assay: Antibiofilm activity against Staphylococcus epidermidis assessed as inhibition of biofilm formation at sub-MIC concentration; assay type: functional, organism-based
[23] = tested on: Staphylococcus aureus; assay: Antibiofilm activity against Staphylococcus aureus assessed as inhibition of biofilm formation at sub-MIC concentration; assay type: functional, organism-based
[24] = tested on: Enterococcus faecium; assay: Antibiofilm activity against Enterococcus faecium assessed as inhibition of biofilm formation at sub-MIC concentration; assay type: functional, organism-based
[25] = tested on: Streptococcus agalactiae; assay: Antibiofilm activity against Streptococcus agalactiae assessed as inhibition of biofilm formation at sub-MIC concentration; assay type: functional, organism-based
[26] = tested on: Enterococcus faecalis; assay: Antibiofilm activity against Enterococcus faecalis FB-1 assessed as inhibition of biofilm infection at 25 uM by fluid shear system; assay type: functional, organism-based
[27] = tested on: Enterococcus faecalis; assay: Antibiofilm activity against Enterococcus faecalis FB-1 assessed as eradication of mature biofilm measured after 48 hrs by semiquantitative microtiter assay; assay type: functional
[28] = tested on: Enterococcus faecalis; assay: Antibiofilm activity against Enterococcus faecalis FB-1 assessed as eradication of mature biofilm measured after 72 hrs by semiquantitative microtiter assay; assay type: functional
[29] = tested on: Enterococcus faecalis; assay: Antibiofilm activity against Enterococcus faecalis assessed as reduction in amount of viable biofilm-embedded bacterial cells at 50 uM measured by YTO 9/PI staining followed by confocal laser scanning microscopy; assay type: functional
[30] = tested on: Enterococcus faecalis; assay: Antibiofilm activity against Enterococcus faecalis assessed as inhibition of biofilm at 1/2 times of MIC incubated for 24 hrs; assay type: functional; set-up: scale not given: the % may be the effect or the level left
[31] = tested on: Enterococcus faecalis; assay: Effect on initial adhesion capacity of Enterococcus faecalis assessed as attached cells at 25 uM for 6 hrs by crystal violet staining based microscopic assay (reference value: 0.412); assay type: functional
[32] = tested on: Enterococcus faecalis; assay: Antibiofilm activity against Enterococcus faecalis assessed as reduction in amount of viable biofilm-embedded bacterial cells at 50 uM in presence of daptomycin measured by YTO 9/PI staining followed by confocal laser scanning microscopy; assay type: functional
[33] = tested on: Enterococcus faecalis; assay: Antibiofilm activity against Enterococcus faecalis assessed as reduction in amount of viable biofilm-embedded bacterial cells at 50 uM in presence of ampicillin measured by YTO 9/PI staining followed by confocal laser scanning microscopy; assay type: functional

Question: What does the source list for COc1cc(C2C(C(=O)c3cc4ccccc4o3)=C(O)C(=O)N2c2nnc(SCc3ccccc3Cl)s2)ccc1O (stereo not drawn)?
Answer: MIC [1]: > 200 µM; MBC [2]: > 200 µM; IC50 [3]: 6.1 µM; CC50 [4]: > 200 µM; hemolysis at 1 h, 50 µM [5]: 2.77%; hemolysis at 1 h, 200 µM [6]: 6.14%; MIC [7]: > 200 µM; MIC [8]: > 200 µM; MIC [9]: > 200 µM; MIC [10]: > 200 µM; MIC [11]: > 200 µM; MIC [12]: > 200 µM; MIC [13]: > 200 µM; MIC [14]: > 200 µM; MIC [15]: > 200 µM; MIC [16]: > 200 µM; inhibition at 100 µM [17]: 92.7%; Activity [18]: Active; Activity [19]: inactive; Activity [20]: Dose-Dependent Effect; Activity [21]: Active; Activity [22]: Active; Activity [23]: Active; Activity [24]: Active; Activity [25]: Active; Activity [26]: Active; Activity [27]: 51%; Activity [28]: 66%; Activity [29]: 52.85%; Activity [30]: 74.8%; OD [31]: 0.143; Activity [32]: 47.16%; Activity [33]: 72.71%
